In this assay the target is T1, AQP1 (Homo sapiens, UniProt P29972).
T1 construct: Human erythrocytes were obtained from blood-bank units stored up to 5 weeks; from tissue; host or cells: human erythrocytes (blood-bank units; small-scale preparations from freshly drawn whole blood)
T1 sequence (P29972 2-269 limits assumed): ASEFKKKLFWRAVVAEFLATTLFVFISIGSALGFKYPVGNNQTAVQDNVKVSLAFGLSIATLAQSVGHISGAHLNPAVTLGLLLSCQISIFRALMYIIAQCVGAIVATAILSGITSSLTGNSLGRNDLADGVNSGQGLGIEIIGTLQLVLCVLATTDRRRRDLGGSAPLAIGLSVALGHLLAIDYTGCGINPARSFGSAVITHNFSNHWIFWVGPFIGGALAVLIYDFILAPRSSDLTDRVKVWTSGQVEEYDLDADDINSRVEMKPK
The assay is described as follows: Stopped-flow osmotic water permeability of AQP1 proteoliposomes. In kind it is biochemical. The text has this: Preparation AQP1-containing proteoliposomes. Crude Escherichia coli lipid was obtained from Avanti Polar Lipids, Inc., and neutral lipid was removed by acetone/ether wash (Ambudkar & Maloney, 1986, Methods. Enzymol. 125:558-563). The purified E. coli bulk phospholipid is composed of phosphalidylethanolamine (70%), phosphatidylglycerol (15%), and cardiolipin (15%) (Chen & Wilson, […], Proc. Natl. Acad. Sci. USA 83:2652-2656). E. coli bulk phospholipid was employed since it has previously been used for functional reconstitution of several transport proteins including the glucose transporter of RBCs (Maloney & Ambudkar, 1989, Arch. Biochem. Biophys. 269:1-10; Chen et al., 1986, Proc. Natl. Acad. Sci. USA 83:2652-2656).
Highly purified AQP1 protein was incorporated into proteoliposomes by detergent dilution; control liposomes were formed in an identical manner without AQP1 protein.
Purified AQP1 was stored overnight at 0° C. or frozen for several days at -80° C. prior to reconstitution. Reconstitution into proteoliposomes was carried out in a final volume of 1 ml containing 60-90 μg of purified AQP1 protein in chromatography buffer, 9 mg of bath-sonicated E. coli phospholipid, 1.25% (w/v) octyl glucoside, and 50 mM Tris-HCl (pH 7.5). The mixture was briefly blended on a vortex mixer and incubated for 20 minutes on ice. Proteoliposomes (or liposomes prepared without protein) were formed at room temperature by rapidly injecting the mixture into 25 ml of buffer A [50 mM MOPS, pH 7.5, 150 mM N-methyl-D-glucamine (NMDG) chloride also containing 10-15 mM carboxyfluorescein, 1 mM dithiothreitol, and 0.5 mM PMSF]. For the measurement of proton permeability, proteoliposomes and liposomes were loaded with buffer B (5 mM MOPS, pH 7.5, 150 mM KCl, 0.5 mM carboxyfluorescein, 1 mM dithiothreitol, and 0.5 mM PMSF). The suspension was incubated for 20 minutes at room temperature. Proteoliposomes or liposomes were collected by centrifugation for 1 hour at 123000×g in a Beckman Type 42.1 rotor at 4° C. The pellet was resuspended in 8 ml of buffer A or B and then centrifuged for 1 hour at 152000×g in a Beckman Type 50 Ti rotor. Proteoliposomes or liposomes were resuspended in 300 μl of buffer A or B and stored at 4° C. for 16-24 hours. Typically 50% (54±6%, n=5) of the AQP1 protein and 70% of the phospholipid were recovered in proteoliposomes. The lipid to protein ratio was in the range of 120:1 to 219:1. […] Protein and phospholipid were measured as described by Ambudkar & Maloney (J. Biol. Chem., 1986, 261:10079-10086).
Permeability measurements. Membrane permeability measurements (Pf) were measured by exposing AQP1 proteoliposomes or control liposomes to an osmotic gradient by rapid mixing with an equal volume of another solution containing buffer A plus sufficient sucrose to increase osmolality in the mixed solutions to a value 120% of that in the original solution. This was performed with a stopped-flow fluorometer (SF.17MV, Applied Photophysics, Leatherhead, U.K.) with a measured dead time of 0.7 ms. […] Extravesicular carboxyfluorescein fluorescence was completely quenched using anti-fluorescein antibody (Harris et al., 1990, Am. J. Physiol. 259:F366-F371). Within the range of osmolalities used in these experiments, the vesicles acted as perfect osmometers, and relative volume (absolute volume divided by initial volume) was linearly related to relative fluorescence (absolute fluorescence divided by initial fluorescence). […]

Bounds are passed on as bounds.

`[Cl][Hg][Cl]` [HgCl2]: the “Pf after mercurial treatment” value (CHIP28 proteoliposomes, 1 mM HgCl2, 3 minutes at 37° C.) is listed as 0.007±0.003 cm/s. The “time to complete inhibition of Pf” value (CHIP28 proteoliposomes, 1 mM, 37° C.) is no more than 5 min. Take `OCCS` [β-mercaptoethanol]: the “reversal of inhibition by mercurial reagents” value (5 mM β-mercaptoethanol after pCMBS or HgCl2) was “completely reversed”.

The values are drawn from patent US5741671A, “Isolation cloning and expression of transmembrane water channel aquaporin 1(AQP1)” (The Johns Hopkins University, priority 1995, dated 1998).
